{"source": "patent US5064813A", "about": "“Combination therapy for selected sex steroid dependent cancers” (priority 1989, dated 1991)", "key": {"[1]": {"system": "serum testosterone", "assay": "LHRH agonist-induced serum testosterone in the dog (RIA)", "format": "in vivo", "conditions": "dogs; for prevention of the LHRH agonist-induced rise in serum testosterone: per os three times daily with 50 μg LHRH-A daily (ketoconazole 200 mg; aminoglutethimide 125 mg plus hydrocortisone), first days of treatment, FIG. 2 and 3", "method": "Eighteen mongrel dogs weighing between 20-30 kg were randomly divided into three groups. The animals were housed one per cage and fed Purina Dog Chow and tap water ad libitum.\nThe animals of group 1 were injected daily (at 0700h) with 50 μg of the LHRH agonist [D-Trp^6, des-Gly-NH2^10 ]LHRH ethylamide (LHRH-A). In group 2, the animals were also injected daily with 50 μg of LHRH-A and took in addition 200 mg of ketoconazole per os at 0700h, 1500h and 2300h. The animals of group 3 received daily 50 μg of LHRH-A and 125 mg of aminoglutethimide per os at 0700h, 1500h, 2300h plus 10 mg of hydrocortisone twice daily.\nBlood samples were collected at 0700h, 0900h, 1100h and 1500h one day before treatment and every day during the treatment. Plasma was extracted with diethyl ether and testosterone was separated on LH-20 columns before RIA measurements."}, "[2]": {"system": "testosterone levels", "conditions": "rodents, in combination with chronic administration of Leuprolide; Santen et al. 1984; cited from earlier work"}, "[3]": {"system": "advanced breast cancer", "conditions": "cited from earlier work"}}, "data": [{"smiles": "CCNC(=O)[C@@H]1CCCN1C(=O)[C@H](CCCNC(=N)N)NC(=O)[C@H](CC(C)C)NC(=O)[C@@H](Cc1c[nH]c2ccccc12)NC(=O)[C@H](Cc1ccc(O)cc1)NC(=O)[C@H](CO)NC(=O)[C@H](Cc1c[nH]c2ccccc12)NC(=O)[C@H](Cc1c[nH]cn1)NC(=O)[C@@H]1CCC(=O)N1", "note": "[[D-Trp^6 des-Gly-NH2^10]LHRH ethylamide, [D-Trp^6, des-Gly-NH2^10]LHRH ethylamide]", "values": [{"measurement": "level of serum testosterone on day 19", "setting": "[1]; daily injection of 50 μg, day 19, FIG. 1", "value": "near-castration levels"}, {"measurement": "increase in serum testosterone", "setting": "[1]; daily injection of 50 μg, one to six days following start of treatment, FIG. 1", "value": "approximately 500 % above control"}]}, {"smiles": "CCC1(c2ccc(N)cc2)CCC(=O)NC1=O", "note": "(stereo not shown) [aminoglutethimide, 3-(4-aminophenyl)-3-ethyl-2,6-piperidinedione]", "values": [{"measurement": "prevention of the LHRH agonist-induced rise in serum testosterone", "setting": "[1]", "value": "almost completely prevented"}]}, {"smiles": "CC(=O)N1CCN(c2ccc(OCC3COC(Cn4ccnc4)(c4ccc(Cl)cc4Cl)O3)cc2)CC1", "note": "(stereo not shown) [ketoconazole]", "values": [{"measurement": "prevention of the LHRH agonist-induced rise in serum testosterone", "setting": "[1]", "value": "almost completely prevented"}, {"measurement": "basal and Leuprolide stimulated testosterone levels", "setting": "[2]", "value": "decreased"}]}, {"smiles": "CC/C(=C(\\c1ccccc1)c1ccc(OCCN(C)C)cc1)c1ccccc1", "note": "[Tamoxifen, (Z)-2-[4-(1,2-diphenyl-1-butenyl)phenoxy]-N,N-dimethylethanamine]", "values": [{"measurement": "remission of advanced breast cancer, share of the patients treated", "setting": "[3]; Tamoxifen alone, Mouridsen et al. 1978", "value": "about 30%"}, {"measurement": "objective remission of breast cancer", "setting": "[3]; combined use with the LH-RH agonist Buserelin, Klijn et al. 1984", "value": 35, "unit": "%"}]}]}
